Reference: US12384808B2, “Modulators of TNF-α activity” (Forward Therapeutics, Inc., priority 2022, dated 2025)

Each compound was assayed against TNFα (Homo sapiens, UniProt P01375) (assay: TNFα Induced HEK Blue Cellular Assay). Conditions: not given.
Assay type: cell-based
How it was run: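 Reporter cells (10,000/well, DMEM + 10% FBS) with compound (final […] to 0.5 nM) stimulated with 100 pg/ml TNFα, 24 h at 37 °C, 5% CO2. Secreted alkaline phosphatase read at 620 nm; IC50 by 4-parameter logistic fit after background correction against stimulated/unstimulated DMSO controls.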

Sequence of TNFα (P01375 77-233 limits assumed): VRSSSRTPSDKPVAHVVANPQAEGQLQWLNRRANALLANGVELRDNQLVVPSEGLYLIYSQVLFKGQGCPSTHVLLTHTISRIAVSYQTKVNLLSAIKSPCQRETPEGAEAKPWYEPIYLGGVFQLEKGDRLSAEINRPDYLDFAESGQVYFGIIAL

| SMILES | IC50 [nM] |
| --- | --- |
| [2H]C([2H])([2H])N1C(=O)c2cccc(OC(F)F)c2[C@H]2C[C@@H]1c1nc3ccc(-c4ccc(CP(=O)(OC)OC)c(F)c4)cc3n12 [Example 136, dimethyl (4-((7R,14R)-1-(difluoromethoxy)-6-(methyl-d3)-5-oxo-5,6,7,14-tetrahydro-7,14-methanobenzo[f]benzo[4,5]imidazo[1,2-a][1,4]diazocin-11-yl)-2-fluorobenzyl)phosphonate] | < 100 |

Same assay, conditions: HEK Blue TNFα reporter cells, TNFα 100 pg/ml, 24 hrs at 37° C., secreted alkaline phosphatase (QUANTI-Blue) read at 620 nm; read-out: IC50 value

| SMILES | IC50 [nM] |
| --- | --- |
| CCP(=O)(CC)c1ccc(-c2ccc3nc4n(c3c2)[C@@H]2C[C@H]4NC(=O)c3cccc(OC(F)F)c32)cn1 [Example 137, (7R,14R)-11-(6-(diethylphosphoryl)pyridin-3-yl)-1-(difluoromethoxy)-6,7-dihydro-7,14-methanobenzo[f]benzo[4,5]imidazo[1,2-a][1,4]diazocin-5(14H)-one] | < 100 |
| [2H]C([2H])([2H])N1C(=O)c2cccc(OC(F)F)c2[C@H]2C[C@@H]1c1nc3ccc(-c4ccc(P(C)(C)=O)c(F)c4)c(F)c3n12 [Example 139, (7R,14R)-1-(difluoromethoxy)-11-(4-(dimethylphosphoryl)-3-fluorophenyl)-12-fluoro-6-(methyl-d3)-6,7-dihydro-7,14-methanobenzo[f]benzo[4,5]imidazo[1,2-a][1,4]diazocin-5(14H)-one] | < 100 |
| [2H]C([2H])([2H])N1C(=O)c2cccc(OC(F)F)c2[C@H]2C[C@@H]1c1nc3ccc(-c4cc(F)c(P(C)(C)=O)cc4F)nc3n12 [Example 142, (7R,14R)-1-(difluoromethoxy)-11-(4-(dimethylphosphoryl)-2,5-difluorophenyl)-6-(methyl-d3)-6,7-dihydro-7,14-methanobenzo[f]pyrido[3′,2′:4,5]imidazo[1,2-a][1,4]diazocin-5(14H)-one] | < 100 |

Next, values leading:

| IC50 [nM] | SMILES |
| --- | --- |
| < 100 | [2H]C([2H])([2H])N1C(=O)c2cccc(OC(F)F)c2[C@H]2C[C@@H]1c1nc3c(F)cc(-c4ccc(P(C)(C)=O)c(F)c4)cc3n12 [Example 135, (7R,14R)-1-(difluoromethoxy)-11-(4-(dimethylphosphoryl)-3-fluorophenyl)-9-fluoro-6-(methyl-d3)-6,7-dihydro-7,14-methanobenzo[f]benzo[4,5]imidazo[1,2-a][1,4]diazocin-5(14H)-one] |
| < 100 | CCP(=O)(CC)c1ccc(-c2ccc3nc4n(c3c2)[C@@H]2C[C@H]4NC(=O)c3cccc(OC(F)F)c32)c(F)c1 [Example 138, (7R,14R)-11-(4-(diethylphosphoryl)-2-fluorophenyl)-1-(difluoromethoxy)-6,7-dihydro-7,14-methanobenzo[f]benzo[4,5]imidazo[1,2-a][1,4]diazocin-5(14H)-one] |
| < 100 | CP(C)(=O)c1ccc(-c2ccc3nc4n(c3c2F)[C@@H]2C[C@H]4NC(=O)c3cccc(OC(F)F)c32)cc1F [Example 140, (7R,14R)-1-(difluoromethoxy)-11-(4-(dimethylphosphoryl)-3-fluorophenyl)-12-fluoro-6,7-dihydro-7,14-methanobenzo[f]benzo[4,5]imidazo[1,2-a][1,4]diazocin-5(14H)-one] |
| < 100 | [2H]C([2H])([2H])N1C(=O)c2cccc(OC(F)F)c2[C@H]2C[C@@H]1c1nc3ccc(-c4ccc(P(C)(C)=O)c(F)c4)nc3n12 [Example 141, (7R,14R)-1-(difluoromethoxy)-11-(4-(dimethylphosphoryl)-3-fluorophenyl)-6-(methyl-d3)-6,7-dihydro-7,14-methanobenzo[f]pyrido[3′,2′:4,5]imidazo[1,2-a][1,4]diazocin-5(14H)-one] |
